Laboratory results reported in patent US5468727A, “Methods of normalizing metabolic parameters in diabetics” (Board of Regents, The University of Texas System, priority 1993, dated 1995).

Tests used:
[1] = system: subjects with early NIDDM; experiment: Serum insulin by radioimmunoassay with CCK-8 infusion; assay type: in vivo, human; conditions: iv CCK-8 infusion
Method: (§1) Blood samples were drawn from the indwelling 18 gauge angiocatheter in the antecubital fossa at 15 min intervals beginning just prior to ingestion of the glucose solution and ending at 120 min. Blood for glucose evaluation was collected in grey-top vacutainer tubes containing potassium oxalate and sodium fluoride. Blood for insulin and C-peptide was collected in red top tubes. Samples for hemoglobin A-1-C, gastric inhibitory polypeptide (GIP) and CCK were collected in lavender top tubes containing EDTA. All glass tubes were from Becton Dickinson Vacutainer Systems, Rutherford, N.J. Glucose analysis were performed on a Paramax instrument (Baxter Healthcare Corp., Irvine, Calif.). Hemoglobin A1C was performed by the micro column test (Bio-Rad, Hercules, Calif. 94547).
(§2) The C-peptide assay was performed by Smith Kline Bioscience Laboratories, Van Nuys, Calif. by radioimmunoassay (Diagnostic Products, Los Angeles, Calif. 90045). The assay for insulin was performed by Smith Kline Bioscience Laboratory, St. Louis, Mo. by radioimmunoassay (Pharmacia Diagnostics, Fairfield, N.J. 07004). Assays for GIP and CCK were performed by radioimmunoassay by the Gastroenterology Unit at Mayo Clinic (Rochester, Minn. 55905) using in-house kits.
(§3) The second study was performed 3 days later. […]

[2] = system: subjects with early NIDDM; experiment: Plasma GIP by radioimmunoassay with CCK-8 infusion; assay type: in vivo, human; conditions: iv CCK-8 infusion; without CCK-8 420.4 pg/ml; P=0.0032
Method: as §1, §2, §3

[3] = Plasma CCK by radioimmunoassay with CCK-8 infusion; assay type: in vivo, human; conditions: during iv CCK-8 infusion; without CCK-8 20.8 pmol/L; P=0.0247
Method: as §1, §2, §3

[4] = system: subjects with early NIDDM; experiment: Gastric emptying study (gamma camera, 99mTc-SC glucose solution) with CCK-8 infusion; assay type: in vivo, human
Text: Seven subjects with early NIDDM (diagnosed for less than 2 years) underwent two separate gastric emptying studies. Subjects were five men and two women ranging in age from 33 to 49 and previously diagnosed as diabetic according to current WHO criteria using a 75 g glucose tolerance test (OGTT) with blood sampled fasting and at 2 hr. All patients had been on oral hypoglycemic medication which was discontinued the evening prior to the study. All studies were begun between 7-8 am following a 12 hour fast.
An 18 gauge angiocatheter was placed in one antecubital fossa for blood drawing while another 18 gauge angiocatheter was placed in the other antecubital fossa for a 0.9% (normal saline) infusion ([…]). Gastric emptying studies utilizing a gamma camera (Scintronix USA, Inc., Woburn Mass.) were performed with a modified 0.62M (50 g glucose in 450 ml water) glucose solution. This solution has been used previously in gastric emptying studies (Schwartz, et al., 1990). […]
The subjects were then seated at a 90 degree angle in front of a gamma camera. […] Counts in the stomach region of interest were calculated in each 60 second image. After correcting for radioactive decay, the count rates were converted to a percentage of the maximum count rate recorded. […]

[5] = system: subjects with early NIDDM; experiment: Plasma glucose after glucose solution with CCK-8 infusion; assay type: in vivo, human; conditions: iv CCK-8 infusion
Method: as §1
(§4) The second study was performed 3 days later. Subjects drank the glucose solution and a gastric emptying study was performed with simultaneous infusion of CCK (Kinevac™, Squibb Diagnostics Princeton, N.J. 08543) at 48 pM/kg/hr.
Infusions of the saline solution for the first test and the CCK solution for the second test were begun 10 min prior to ingestion of the glucose solution.

[6] = system: subjects with early NIDDM; experiment: Adverse effects during CCK-8 infusion; assay type: in vivo, human; conditions: iv CCK-8 infusion, 2 hr
Method: as §4
None of the subjects reported any nausea or abdominal distress during the CCK-8 infusions.

[7] = system: obese diabetic Zucker rats; experiment: Gastric emptying by gamma scintigraphy with camostat, diabetic rats; assay type: in vivo; conditions: diabetic Zucker rats 10 wks old, 1% camostat in 30% glucose solution by gavage; without 38.4±18 min
Method: (§5) Eight male obese Zucker rats of a strain that becomes diabetic by 10 wks of age and 8 matched lean Zucker rats as controls were studied. After overnight fast, rats 10 wks old were fed by gavage a 30% glucose solution ([…] body weight) containing 150 μCi of ^99m Tc-SC. Each rat was tested with and without 1% camostat, a trypsin inhibitor known to stimulate CCK release, in the glucose solution. Gastric emptying was monitored by gamma scintigraphy at 10 min intervals. Fasting and 1 hr postprandial plasma glucose were determined.

[8] = system: lean Zucker rats; experiment: Gastric emptying by gamma scintigraphy with camostat, lean rats; assay type: in vivo; conditions: lean Zucker rats 10 wks old, 1% camostat in 30% glucose solution by gavage; without 65.1±5.7 min
Method: as §5

[9] = system: obese diabetic Zucker rats; experiment: Fasting and 1 hr postprandial plasma glucose with camostat, diabetic rats; assay type: in vivo; conditions: fasting to 1 hr postprandial, 1% camostat in 30% glucose solution, without Camostat 270-±18 mg/dl
Method: as §5

| average plasma CCK-8 excursion [3] | Structure (SMILES) | average insulin concentration over the 2 hr period, relative to saline infusion ([1]; not statistically significant) | average insulin concentration over the 2 hr period ([1]; without CCK-8 44.2 μU/ml, P=0.1480) | average GIP excursion over the 2 hr period [2] | gastric half-emptying time ([4]; average, 7 early NIDDM subjects, iv CCK infusion 48 pM/kg/hr, 50 g glucose in 450 ml, without CCK-8 40.9 min, P=0.0042) | average area under the gastric emptying curve during the 2-hr period, relative to the same patients not receiving CCK-8 ([4]; iv CCK-8 infusion, early NIDDM subjects, 2 hr) | average glucose excursion value during the 2-hr period, relative to saline infusion ([5]; 2 hr) | average glucose excursion value during the 2-hr period ([5]; saline 5.6 mmol/liter, P=0.0550) | average glucose concentration during the 2-hr period following the glucose meal ([5]; saline infusion 17.1, P=0.0073) | adverse effects (nausea, abdominal distress) during infusion [6] | gastric half-emptying time [7] | gastric half-emptying time [8] | incremental increase in plasma glucose [9] |
| --- | --- | --- | --- | --- | --- | --- | --- | --- | --- | --- | --- | --- | --- |
| 49.6 pmol/L | CSCC[C@H](NC(=O)[C@H](Cc1ccc(OS(=O)(=O)O)cc1)NC(=O)[C@@H](N)CC(=O)O)C(=O)NCC(=O)N[C@@H](Cc1c[nH]c2ccccc12)C(=O)N[C@@H](CCSC)C(=O)N[C@@H](CC(=O)O)C(=O)N[C@@H](Cc1ccccc1)C(N)=O [CCK-8, Cholecystokinin-octapeptide] | 68% | 30.2 μU/ml | 266.4 pg/mL | 94.2 min | 175% | 66% | 3.7 mmol/L | 14.0 mmol/L | No adverse effects were reported or observed |  |  |  |
|  | CN(C)C(=O)COC(=O)Cc1ccc(OC(=O)c2ccc(NC(=N)N)cc2)cc1 [Camostat] |  |  |  |  |  |  |  |  |  | 141 ± 33 min | 167 ± 25 min | 160 ± 15 mg/dL |
